Test results reported in patent US20070128217A1 (priority 2003, published 2007).

What was measured:
[1] = test system: antibodies in sera from SARS patients (sera 1a, 1b, 2, 6, 37, 62, London, SARS-yellow, SARS-green); format: binding, human; set-up: Binding of serum 6 to linear peptides of protein X1 of SARS-CoV Urbani / Binding of serum 37 to linear peptides of protein X1 of SARS-CoV Urbani / Binding of serum 6 to looped/cyclic peptide (PEPSCAN-ELISA) / Binding of serum 37 to looped/cyclic peptide (PEPSCAN-ELISA) / Binding of serum 37 to looped/cyclic peptides of protein X1 of SARS-CoV Urbani / Binding of serum 6 to linear peptides of protein X2 / Binding of serum 37 to linear peptides of protein X2 / Binding of serum 37 to looped/cyclic peptides of protein X2 of SARS-CoV Urbani / Binding of serum 6 to linear peptides of protein M of SARS-CoV Urbani / Binding of serum 37 to linear peptides of protein M of SARS-CoV Urbani / Binding of serum 6 to looped/cyclic peptides of protein M of SARS-CoV Urbani / Binding of serum 37 to looped/cyclic peptides of protein M of SARS-CoV Urbani / Binding of serum 6 to linear peptides of protein X3 of SARS-CoV Urbani / Binding of serum 37 to linear peptides of protein X3 of SARS-CoV Urbani / Binding of serum 37 to looped/cyclic peptides of protein X3 of SARS-CoV Urbani / Binding of serum 6 to linear peptides of protein X4 of SARS-CoV Urbani / Binding of serum 37 to linear peptides of protein X4 of SARS-CoV Urbani / Binding of serum 37 to looped/cyclic peptides of protein X4 of SARS-CoV Urbani / Binding of serum 6 to linear peptides of protein X5 of SARS-CoV Urbani / Binding of serum 37 to linear peptides of protein X5 of SARS-CoV Urbani / Binding of serum 37 to looped/cyclic peptides of protein X5 of SARS-CoV Urbani / Binding of serum 6 to linear peptides of protein N of SARS-CoV Urbani / Binding of serum 37 to linear peptides of protein N of SARS-CoV Urbani / Binding of serum 6 to linear peptide (PEPSCAN-ELISA) / Binding of serum 1a to looped/cyclic peptides of protein N of SARS-CoV Urbani / Binding of serum 1b to looped/cyclic peptides of protein N of SARS-CoV Urbani / Binding of serum 2 to looped/cyclic peptides of protein N of SARS-CoV Urbani / Binding of serum 6 to looped/cyclic peptides of protein N of SARS-CoV Urbani / Binding of serum 37 to looped/cyclic peptides of protein N of SARS-CoV Urbani / Binding of serum 62 to looped/cyclic peptides of protein N of SARS-CoV Urbani / Binding of serum London to looped/cyclic peptides of protein N of SARS-CoV Urbani / Binding of serum SARS-green to looped/cyclic peptides of protein N of SARS-CoV Urbani: unit not given here
[2] = test system: control sera (pooled serum of ten healthy LUMC hospital workers; commercial negative donor pooled serum from the Dutch bloodbank); format: binding, human; set-up: Binding of Control serum LUMC to linear peptides / Binding of Control serum Blood-bank to linear peptides / Binding of Control serum LUMC to looped peptides / Binding of Control Serum Blood-Bank to Looped peptides / Binding of Control serum LUMC to linear peptides of the protein M of SARS-CoV Urbani / Binding of Control serum Blood-bank to linear peptides of the protein M of SARS-CoV Urbani / Binding of Control serum LUMC to looped peptides of the protein M of SARS-CoV Urbani / Binding of Control Serum Blood-Bank to Looped peptides of the protein M of SARS-CoV Urbani: unit not given here
[3] = test system: rabbit serum obtained by immunizing a rabbit with the SARS-CoV strain Frankfurt 1; format: binding; set-up: Binding of a rabbit serum to linear peptides / Binding of a rabbit serum to looped peptides / Rabbit serum linear peptides / Rabbit serum looped peptides / Binding of a rabbit serum to linear peptides of protein N of SARS-CoV Urbani (Rabbit serum linear peptides) / Binding of a rabbit serum to looped/cyclic peptides of protein N of SARS-CoV Urbani (Rabbit serum looped peptides): unit not given here

## ALIARCWYLHEGHQT
[1]
  Binding of serum 1a to linear peptides of protein X5 of SARS-CoV Urbani: 0.6
  Binding of serum 1a to looped/cyclic peptides of protein X5 of SARS-CoV Urbani: 0.6
  Binding of serum 1b to linear peptides of protein X5 of SARS-CoV Urbani: 0.5
  Binding of serum 1b to looped/cyclic peptides of protein X5 of SARS-CoV Urbani: 0.1
  Binding of serum 2 to linear peptides of protein X5 of SARS-CoV Urbani: 0.6
  Binding of serum 2 to looped/cyclic peptides of protein X5 of SARS-CoV Urbani: 0.5
  Binding of serum 6 to linear peptides of protein X5 of SARS-CoV Urbani: 0.5
  Binding of serum 6 to looped/cyclic peptides of protein X5 of SARS-CoV Urbani: 0.3
  Binding of serum 37 to linear peptides of protein X5 of SARS-CoV Urbani: 0.7
  Binding of serum 37 to looped/cyclic peptides of protein X5 of SARS-CoV Urbani: 0.4
  Binding of serum 62 to linear peptides of protein X5 of SARS-CoV Urbani: 0.7
  Binding of serum 62 to looped/cyclic peptides of protein X5 of SARS-CoV Urbani: 0.4
  Binding of serum London to linear peptides of protein X5 of SARS-CoV Urbani: 0.6
  Binding of serum London to looped/cyclic peptides of protein X5 of SARS-CoV Urbani: 0.1
  Binding of serum SARS-green to linear peptides of protein X5 of SARS-CoV Urbani: 0.7
  Binding of serum SARS-green to looped/cyclic peptides of protein X5 of SARS-CoV Urbani: 0.0
  Binding of serum SARS-yellow to linear peptides of protein X5 of SARS-CoV Urbani: 0.2
  Binding of serum SARS-yellow to looped/cyclic peptides of protein X5 of SARS-CoV Urbani: 0.0
[2]
  Binding of Control Serum Blood-Bank to Looped peptides: 0.4
  Binding of Control serum Blood-bank to linear peptides: 0.6
  Binding of Control serum LUMC to linear peptides: 0.4
  Binding of Control serum LUMC to looped peptides: 0.1
[3]
  Rabbit serum linear peptides: 0.6
  Rabbit serum looped peptides: 0.0

## DVIISSIVRQLFKPL
[1]
  Binding of serum 1a to linear peptides of protein X3 of SARS-CoV Urbani: 0.7
  Binding of serum 1a to looped/cyclic peptides of protein X3 of SARS-CoV Urbani: 0.6
  Binding of serum 1b to linear peptides of protein X3 of SARS-CoV Urbani: 0.4
  Binding of serum 1b to looped/cyclic peptides of protein X3 of SARS-CoV Urbani: 0.2
  Binding of serum 2 to linear peptides of protein X3 of SARS-CoV Urbani: 0.5
  Binding of serum 2 to looped/cyclic peptides of protein X3 of SARS-CoV Urbani: 0.5
  Binding of serum 6 to linear peptides of protein X3 of SARS-CoV Urbani: 0.3
  Binding of serum 6 to looped/cyclic peptides of protein X3 of SARS-CoV Urbani: 0.6
  Binding of serum 37 to linear peptides of protein X3 of SARS-CoV Urbani: 0.6
  Binding of serum 37 to looped/cyclic peptides of protein X3 of SARS-CoV Urbani: 0.5
  Binding of serum 62 to linear peptides of protein X3 of SARS-CoV Urbani: 0.6
  Binding of serum 62 to looped/cyclic peptides of protein X3 of SARS-CoV Urbani: 0.4
  Binding of serum London to linear peptides of protein X3 of SARS-CoV Urbani: 0.6
  Binding of serum London to looped/cyclic peptides of protein X3 of SARS-CoV Urbani: 0.6
  Binding of serum SARS-green to linear peptides of protein X3 of SARS-CoV Urbani: 0.3
  Binding of serum SARS-green to looped/cyclic peptides of protein X3 of SARS-CoV Urbani: 0.4
  Binding of serum SARS-yellow to linear peptides of protein X3 of SARS-CoV Urbani: 0.2
  Binding of serum SARS-yellow to looped/cyclic peptides of protein X3 of SARS-CoV Urbani: 0.5
[2]
  Binding of Control Serum Blood-Bank to Looped peptides of the protein X3 of SARS-CoV Urbani: 0.5
  Binding of Control serum Blood-bank to linear peptides of the protein X3 of SARS-CoV Urbani: 0.6
  Binding of Control serum LUMC to linear peptides of the protein X3 of SARS-CoV Urbani: 0.4
  Binding of Control serum LUMC to looped peptides of the protein X3 of SARS-CoV Urbani: 0.5
[3]
  Rabbit serum linear peptides: 0.5
  Rabbit serum looped peptides: 0.2

## QASLPFGWLVIGVAF
[1]
  Binding of serum 1a to linear peptides of protein X1 of SARS-CoV Urbani: 0.7
  Binding of serum 1a to looped/cyclic peptide (PEPSCAN-ELISA): 0.4
  Binding of serum 1b to linear peptides of protein X1 of SARS-CoV Urbani: 0.6
  Binding of serum 1b to looped/cyclic peptide (PEPSCAN-ELISA): 0.3
  Binding of serum 2 to linear peptides of protein X1 of SARS-CoV Urbani: 0.6
  Binding of serum 2 to looped/cyclic peptide (PEPSCAN-ELISA): 0.2
  Binding of serum 6 to linear peptides of protein X1 of SARS-CoV Urbani: 0.4
  Binding of serum 6 to looped/cyclic peptide (PEPSCAN-ELISA): 0.3
  Binding of serum 37 to linear peptides of protein X1 of SARS-CoV Urbani: 0.6
  Binding of serum 37 to looped/cyclic peptide (PEPSCAN-ELISA): 0.4
  Binding of serum 62 to linear peptides of protein X1 of SARS-CoV Urbani: 0.6
  Binding of serum 62 to looped/cyclic peptide (PEPSCAN-ELISA): 0.4
  Binding of serum London to linear peptides of protein X1 of SARS-CoV Urbani: 0.2
  Binding of serum London to looped/cyclic peptide (PEPSCAN-ELISA): 0.2
  Binding of serum SARS-green to linear peptides of protein X1 of SARS-CoV Urbani: 0.1
  Binding of serum SARS-green to looped/cyclic peptide (PEPSCAN-ELISA): 0.2
  Binding of serum SARS-yellow to linear peptides of protein X1 of SARS-CoV Urbani: 0.5
  Binding of serum SARS-yellow to looped/cyclic peptide (PEPSCAN-ELISA): 0.2
[2]
  Binding of Control Serum Blood-Bank to Looped peptides: 0.4
  Binding of Control serum Blood-bank to linear peptides: 0.7
  Binding of Control serum LUMC to linear peptides: 0.6
  Binding of Control serum LUMC to looped peptides: 0.4
[3]
  Binding of a rabbit serum to linear peptides: 0.3
  Binding of a rabbit serum to looped peptides: 0.4

## LAVFQSATKIIALNK
[1]
  Binding of serum 1a to linear peptides of protein X1 of SARS-CoV Urbani: 0.7
  Binding of serum 1a to looped/cyclic peptide (PEPSCAN-ELISA): 0.5
  Binding of serum 1b to linear peptides of protein X1 of SARS-CoV Urbani: 0.5
  Binding of serum 1b to looped/cyclic peptide (PEPSCAN-ELISA): 0.4
  Binding of serum 2 to linear peptides of protein X1 of SARS-CoV Urbani: 0.5
  Binding of serum 2 to looped/cyclic peptide (PEPSCAN-ELISA): 0.5
  Binding of serum 6 to linear peptides of protein X1 of SARS-CoV Urbani: 0.6
  Binding of serum 6 to looped/cyclic peptide (PEPSCAN-ELISA): 0.6
  Binding of serum 37 to linear peptides of protein X1 of SARS-CoV Urbani: 0.6
  Binding of serum 37 to looped/cyclic peptide (PEPSCAN-ELISA): 0.5
  Binding of serum 62 to linear peptides of protein X1 of SARS-CoV Urbani: 0.5
  Binding of serum 62 to looped/cyclic peptide (PEPSCAN-ELISA): 0.6
  Binding of serum London to linear peptides of protein X1 of SARS-CoV Urbani: 0.2
  Binding of serum London to looped/cyclic peptide (PEPSCAN-ELISA): 0.7
  Binding of serum SARS-green to linear peptides of protein X1 of SARS-CoV Urbani: 0.3
  Binding of serum SARS-green to looped/cyclic peptide (PEPSCAN-ELISA): 0.3
  Binding of serum SARS-yellow to linear peptides of protein X1 of SARS-CoV Urbani: 0.4
  Binding of serum SARS-yellow to looped/cyclic peptide (PEPSCAN-ELISA): 0.5
[2]
  Binding of Control Serum Blood-Bank to Looped peptides: 0.5
  Binding of Control serum Blood-bank to linear peptides: 0.7
  Binding of Control serum LUMC to linear peptides: 0.6
  Binding of Control serum LUMC to looped peptides: 0.6
[3]
  Binding of a rabbit serum to linear peptides: 0.1
  Binding of a rabbit serum to looped peptides: 0.7

## FLTLIVFTSCELYHY
[1]
  Binding of serum 1a to linear peptides of protein X4 of SARS-CoV Urbani: 0.7
  Binding of serum 1a to looped/cyclic peptides of protein X4 of SARS-CoV Urbani: 0.8
  Binding of serum 1b to linear peptides of protein X4 of SARS-CoV Urbani: 0.6
  Binding of serum 1b to looped/cyclic peptides of protein X4 of SARS-CoV Urbani: 1.7
  Binding of serum 2 to linear peptides of protein X4 of SARS-CoV Urbani: 0.5
  Binding of serum 2 to looped/cyclic peptides of protein X4 of SARS-CoV Urbani: 0.8
  Binding of serum 6 to linear peptides of protein X4 of SARS-CoV Urbani: 0.5
  Binding of serum 6 to looped/cyclic peptides of protein X4 of SARS-CoV Urbani: 0.5
  Binding of serum 37 to linear peptides of protein X4 of SARS-CoV Urbani: 0.7
  Binding of serum 37 to looped/cyclic peptides of protein X4 of SARS-CoV Urbani: 0.7
  Binding of serum 62 to linear peptides of protein X4 of SARS-CoV Urbani: 0.7
  Binding of serum 62 to looped/cyclic peptides of protein X4 of SARS-CoV Urbani: 0.7
  Binding of serum London to linear peptides of protein X4 of SARS-CoV Urbani: 0.6
  Binding of serum London to looped/cyclic peptides of protein X4 of SARS-CoV Urbani: 0.3
  Binding of serum SARS-green to linear peptides of protein X4 of SARS-CoV Urbani: 0.6
  Binding of serum SARS-green to looped/cyclic peptides of protein X4 of SARS-CoV Urbani: 0.3
  Binding of serum SARS-yellow to linear peptides of protein X4 of SARS-CoV Urbani: 0.6
  Binding of serum SARS-yellow to looped/cyclic peptides of protein X4 of SARS-CoV Urbani: 0.7
[2]
  Binding of Control Serum Blood-Bank to Looped peptides: 0.6
  Binding of Control serum Blood-bank to linear peptides: 0.6
  Binding of Control serum LUMC to linear peptides: 0.7
  Binding of Control serum LUMC to looped peptides: 0.7
[3]
  Rabbit serum linear peptides: 0.4
  Rabbit serum looped peptides: 0.5
